Measured values reported in ChEMBL document CHEMBL5528040, “Design and Synthesis of Novel 3-Nitro-1H-1,2,4-triazole-1,2,3-triazole-1,4-disubstituted Analogs as Promising Antitrypanosomatid Agents: Evaluation of In Vitro Activity against Chagas Disease and Leishmaniasis” (J Med Chem, 2024).

Experiments:
Trypanosoma cruzi = test: Potency index, ratio of Benznidazole IC50 to test compound IC50 for antitrypanosomal activity against Trypanosoma cruzi Tulahuen amastigotes transfected with Escherichia coli beta-galactosidase LacZ gene infected in monkey LLC-MK2 cells assessed as inhibition of amastigotes growth incubated for 72 hrs by absorbance based microplate reader analysis; assay type: functional
Leishmania amazonensis = test: Antileishmanial activity against Leishmania amazonensis IFLA/BR/1967/PH8 amastigotes infected in murine peritoneal macrophages incubated for 24 hrs by Giemsa staining based analysis; assay type: functional, organism-based; details: IFLA/BR/1967/PH8, Peritoneal macrophage
[1] = Mutagenicity in Salmonella typhimurium TA98 assessed as number of revertant colonies at 50 ug per plate incubated for 90 mins in presence of S9 fraction by AMES test (reference value: 21.00 +/- 1.00); assay type: toxicity, subcellular, Salmonella enterica subsp. enterica serovar Typhimurium; details: s9, 1.5 h, dose 50 µg
[2] = Mutagenicity in Salmonella typhimurium TA98 assessed as number of revertant colonies at 150 ug per plate incubated for 90 mins in presence of S9 fraction by AMES test (reference value: 21.00 +/- 1.00); assay type: toxicity, subcellular, Salmonella enterica subsp. enterica serovar Typhimurium; details: s9, 1.5 h, dose 150 µg
[3] = Mutagenicity in Salmonella typhimurium TA98 assessed as number of revertant colonies at 500 ug per plate incubated for 90 mins in presence of S9 fraction by AMES test (reference value: 21.00 +/- 1.00); assay type: toxicity, subcellular, Salmonella enterica subsp. enterica serovar Typhimurium; details: s9, 1.5 h, dose 500 µg
[4] = Mutagenicity in Salmonella typhimurium TA98 assessed as number of revertant colonies at 1500 ug per plate incubated for 90 mins in presence of S9 fraction by AMES test (reference value: 21.00 +/- 1.00); assay type: toxicity, subcellular, Salmonella enterica subsp. enterica serovar Typhimurium; details: s9, 1.5 h, dose 1500 µg
[5] = Mutagenicity in Salmonella typhimurium TA100 assessed as number of revertant colonies at 50 ug per plate incubated for 90 mins by AMES test (reference value: 88.00 +/- 2.65); assay type: toxicity, Salmonella enterica subsp. enterica serovar Typhimurium; details: in vivo, 1.5 h, dose 50 µg
[6] = Mutagenicity in Salmonella typhimurium TA100 assessed as number of revertant colonies at 150 ug per plate incubated for 90 mins by AMES test (reference value: 88.00 +/- 2.65); assay type: toxicity, Salmonella enterica subsp. enterica serovar Typhimurium; details: in vivo, 1.5 h, dose 150 µg
[7] = Mutagenicity in Salmonella typhimurium TA100 assessed as number of revertant colonies at 500 ug per plate incubated for 90 mins by AMES test (reference value: 88.00 +/- 2.65); assay type: toxicity, Salmonella enterica subsp. enterica serovar Typhimurium; details: in vivo, 1.5 h, dose 500 µg
[8] = Mutagenicity in Salmonella typhimurium TA100 assessed as number of revertant colonies at 1500 ug per plate incubated for 90 mins by AMES test (reference value: 88.00 +/- 2.65); assay type: toxicity, Salmonella enterica subsp. enterica serovar Typhimurium; details: in vivo, 1.5 h, dose 1500 µg
[9] = Mutagenicity in Salmonella typhimurium TA100 assessed as number of revertant colonies at 50 ug per plate incubated for 90 mins in presence of S9 fraction by AMES test (reference value: 122.67 +/- 5.03); assay type: toxicity, subcellular, Salmonella enterica subsp. enterica serovar Typhimurium; details: s9, 1.5 h, dose 50 µg
[10] = Mutagenicity in Salmonella typhimurium TA100 assessed as number of revertant colonies at 150 ug per plate incubated for 90 mins in presence of S9 fraction by AMES test (reference value: 122.67 +/- 5.03); assay type: toxicity, subcellular, Salmonella enterica subsp. enterica serovar Typhimurium; details: s9, 1.5 h, dose 150 µg
[11] = Mutagenicity in Salmonella typhimurium TA100 assessed as number of revertant colonies at 500 ug per plate incubated for 90 mins in presence of S9 fraction by AMES test (reference value: 122.67 +/- 5.03); assay type: toxicity, subcellular, Salmonella enterica subsp. enterica serovar Typhimurium; details: s9, 1.5 h, dose 500 µg
[12] = Mutagenicity in Salmonella typhimurium TA102 assessed as number of revertant colonies at 50 ug per plate incubated for 90 mins by AMES test (reference value: 110.67 +/- 20.15); assay type: toxicity, Salmonella enterica subsp. enterica serovar Typhimurium; details: in vivo, 1.5 h, dose 50 µg
[13] = Mutagenicity in Salmonella typhimurium TA102 assessed as number of revertant colonies at 150 ug per plate incubated for 90 mins by AMES test (reference value: 110.67 +/- 20.15); assay type: toxicity, Salmonella enterica subsp. enterica serovar Typhimurium; details: in vivo, 1.5 h, dose 150 µg
[14] = Mutagenicity in Salmonella typhimurium TA102 assessed as number of revertant colonies at 5000 ug per plate incubated for 90 mins by AMES test (reference value: 110.67 +/- 20.15); assay type: toxicity, Salmonella enterica subsp. enterica serovar Typhimurium; details: in vivo, 1.5 h, dose 5000 µg
[15] = Mutagenicity in Salmonella typhimurium TA102 assessed as number of revertant colonies at 500 ug per plate incubated for 90 mins in presence of S9 fraction by AMES test (reference value: 130.00 +/- 6.93); assay type: toxicity, subcellular, Salmonella enterica subsp. enterica serovar Typhimurium; details: s9, 1.5 h, dose 500 µg
[16] = Mutagenicity in Salmonella typhimurium TA98 assessed as mutagenic index ratio at 50 ug per plate incubated for 90 mins by AMES test; assay type: toxicity, Salmonella enterica subsp. enterica serovar Typhimurium; details: in vivo, 1.5 h, dose 50 µg
[17] = Mutagenicity in Salmonella typhimurium TA98 assessed as mutagenic index ratio at 150 ug per plate incubated for 90 mins by AMES test; assay type: toxicity, Salmonella enterica subsp. enterica serovar Typhimurium; details: in vivo, 1.5 h, dose 150 µg
[18] = Mutagenicity in Salmonella typhimurium TA98 assessed as mutagenic index ratio at 500 ug per plate incubated for 90 mins by AMES test; assay type: toxicity, Salmonella enterica subsp. enterica serovar Typhimurium; details: in vivo, 1.5 h, dose 500 µg
[19] = Mutagenicity in Salmonella typhimurium TA98 assessed as mutagenic index ratio at 1500 ug per plate incubated for 90 mins by AMES test; assay type: toxicity, Salmonella enterica subsp. enterica serovar Typhimurium; details: in vivo, 1.5 h, dose 1500 µg
[20] = Mutagenicity in Salmonella typhimurium TA98 assessed as mutagenic index ratio at 5000 ug per plate incubated for 90 mins by AMES test; assay type: toxicity, Salmonella enterica subsp. enterica serovar Typhimurium; details: in vivo, 1.5 h, dose 5000 µg
[21] = Mutagenicity in Salmonella typhimurium TA98 assessed as mutagenic index ratio at 5000 ug per plate incubated for 90 mins in presence of S9 fraction by AMES test; assay type: toxicity, subcellular, Salmonella enterica subsp. enterica serovar Typhimurium; details: s9, 1.5 h, dose 5000 µg
[22] = Mutagenicity in Salmonella typhimurium TA100 assessed as mutagenic index ratio at 50 ug per plate incubated for 90 mins by AMES test; assay type: toxicity, Salmonella enterica subsp. enterica serovar Typhimurium; details: in vivo, 1.5 h, dose 50 µg
[23] = Mutagenicity in Salmonella typhimurium TA100 assessed as mutagenic index ratio at 150 ug per plate incubated for 90 mins by AMES test; assay type: toxicity, Salmonella enterica subsp. enterica serovar Typhimurium; details: in vivo, 1.5 h, dose 150 µg
[24] = Mutagenicity in Salmonella typhimurium TA100 assessed as mutagenic index ratio at 500 ug per plate incubated for 90 mins by AMES test; assay type: toxicity, Salmonella enterica subsp. enterica serovar Typhimurium; details: in vivo, 1.5 h, dose 500 µg
[25] = Mutagenicity in Salmonella typhimurium TA100 assessed as mutagenic index ratio at 1500 ug per plate incubated for 90 mins by AMES test; assay type: toxicity, Salmonella enterica subsp. enterica serovar Typhimurium; details: in vivo, 1.5 h, dose 1500 µg
[26] = Mutagenicity in Salmonella typhimurium TA100 assessed as mutagenic index ratio at 5000 ug per plate incubated for 90 mins in presence of S9 fraction by AMES test; assay type: toxicity, subcellular, Salmonella enterica subsp. enterica serovar Typhimurium; details: s9, 1.5 h, dose 5000 µg
[27] = Mutagenicity in Salmonella typhimurium TA102 assessed as mutagenic index ratio at 5000 ug per plate incubated for 90 mins by AMES test; assay type: toxicity, Salmonella enterica subsp. enterica serovar Typhimurium; details: in vivo, 1.5 h, dose 5000 µg
[28] = Mutagenicity in Salmonella typhimurium TA102 assessed as mutagenic index ratio at 50 ug per plate incubated for 90 mins in presence of S9 fraction by AMES test; assay type: toxicity, subcellular, Salmonella enterica subsp. enterica serovar Typhimurium; details: s9, 1.5 h, dose 50 µg
[29] = Mutagenicity in Salmonella typhimurium TA102 assessed as mutagenic index ratio at 500 ug per plate incubated for 90 mins in presence of S9 fraction by AMES test; assay type: toxicity, subcellular, Salmonella enterica subsp. enterica serovar Typhimurium; details: s9, 1.5 h, dose 500 µg
[30] = Mutagenicity in Salmonella typhimurium TA102 assessed as mutagenic index ratio at 1500 ug per plate incubated for 90 mins in presence of S9 fraction by AMES test; assay type: toxicity, subcellular, Salmonella enterica subsp. enterica serovar Typhimurium; details: s9, 1.5 h, dose 1500 µg
[31] = Mutagenicity in Salmonella typhimurium TA102 assessed as mutagenic index ratio at 5000 ug per plate incubated for 90 mins in presence of S9 fraction by AMES test; assay type: toxicity, subcellular, Salmonella enterica subsp. enterica serovar Typhimurium; details: s9, 1.5 h, dose 5000 µg

## O=[N+]([O-])c1ncn(Cc2cn(-c3ccc(OC(F)(F)F)cc3)nn2)n1
Trypanosoma cruzi
  Ratio IC50: 68
Leishmania amazonensis
  IC50: 4.7 µM
[1]
  Activity: 22.67
[2]
  Activity: 23.33
[3]
  Activity: 23.33
[4]
  Activity: 22
[5]
  Activity: 104.33
[6]
  Activity: 96
[7]
  Activity: 83
[8]
  Activity: 81
[9]
  Activity: 121.33
[10]
  Activity: 117.33
[11]
  Activity: 129
[12]
  Activity: 215.33
[13]
  Activity: 159.33
[14]
  Activity: 143.67
[15]
  Activity: 190
[16]
  Ratio: 0.8
[17]
  Ratio: 1
[18]
  Ratio: 0.9
[19]
  Ratio: 0.8
[20]
  Ratio: 1.1
[21]
  Ratio: 0.7
[22]
  Ratio: 1.1
[23]
  Ratio: 1
[24]
  Ratio: 0.9
[25]
  Ratio: 0.9
[26]
  Ratio: 0.3
[27]
  Ratio: 1.2
[28]
  Ratio: 0.2
[29]
  Ratio: 1.4
[30]
  Ratio: 1.3
[31]
  Ratio: 1
